# According to patent US7598244B2, “[1,2,4]triazolo[1,5,a]pyrimidin-2-ylurea derivative and use thereof” (Nippon Kayaku Kabushiki Kaisha, priority 2003, dated 2009):
# What was measured:
# CD1a = test: Expression of antigen-presenting and costimulatory molecules of human peripheral blood-derived dendritic cells: CD1a; type: cell-based; conditions: Analyte 1 (dendritic cells of one healthy subject), 3 days
# Description: (§1) Action on Expression of Antigen-Presenting Molecules and Costimulatory Molecules of Human Peripheral Blood-Derived Dendritic Cells
# The dendritic cells obtained by the same method as in Test Example 2 were suspended in RPMI 1640 comprising 10% FCS containing 500 U/ml GM-CSF, 50 ng/ml IL-4, and 100 U/ml human recombinant tumor necrosis factor (2.5×10^6 cells/ml). Thereafter, the suspension was inoculated into a 6-well plate at an amount of 2.0 ml/well, and the test compound was then added thereto. The mixture was cultured at 37° C. for 3 days in an incubator containing 5% carbon dioxide. Thereafter, the suspended cells were recovered. The cells were then stained with fluoroisothiocyanate-labeled mouse monoclonal antibodies reacting with MHC class I (Bechman Coulter), CD1a (Immunotech), CD40 (Pharmingen), CD80 (Pharmingen), and CD83 (Immunotech). Thereafter, mean fluorescence intensity and the ratio of positive cells were measured by flow cytometry. The expression level was calculated by the formula “the mean fluorescence intensity x the ratio of positive cells,” and the inhibition rate of the surface antigen expression level of dendritic cells was then obtained by the following formula (8). […]
# BALB/c mice = test: Effect on mouse plaque forming cells (PFCs) to sheep erythrocytes; type: in vivo; conditions: Oral, 50 mg/kg/single administration, twice a day for 4 days
# Description: Effect on Mouse Plaque Forming Cells (PFCs)
# Sheep erythrocytes (Nippon Seibutsu Zairyo Center, Co., Ltd.) were intraperitoneally administered to each of BALB/c mice (Charles River Japan, Inc.; female; 8-week-old) at an amount of 1.0×10^8 cells. Thereafter, a test compound was administered thereto twice a day for 4 days after the first administration (only once on the first day) (n=4). On the day subsequent to completion of the administration of the test compound, splenic cells were prepared from the mouse, and the number of PFCs to the sheep erythrocytes was counted by the method of Cunninham (Cunninham, A. J. et al., Immunology, vol. 14, p. 599 (1968)). The number of PFCs per number of splenic cells of 1.0×10^6 was obtained. The reduction rate of the number of PFC in the mouse to which the test compound had been administered, to the number of PFCs in a control mouse to which the test compound had not been administered but only a solvent had been administered, was calculated using the following formula (4).
# [formula] • Eexp: The number of PFCs per 1×10^6 splenic cells of mouse to which test compound was administered • Cexp: The number of PFCs per 1×10^6 splenic cells of mouse to which solvent was administered
# CD80 = test: Expression of antigen-presenting and costimulatory molecules of human peripheral blood-derived dendritic cells: CD80; type: cell-based
# Description: as §1
# The dendritic cells obtained by the same method as in Test Example 2 were suspended in RPMI 1640 comprising 10% FCS containing 500 U/ml GM-CSF, 50 ng/ml IL-4, and 100 U/ml human recombinant tumor necrosis factor (2.5×10^6 cells/ml). Thereafter, the suspension was inoculated into a 6-well plate at an amount of 2.0 ml/well, and the test compound was then added thereto. The mixture was cultured at 37° C. for 3 days in an incubator containing 5% carbon dioxide. Thereafter, the suspended cells were recovered. The cells were then stained with fluoroisothiocyanate-labeled mouse monoclonal antibodies reacting with MHC class I (Bechman Coulter), CD1a (Immunotech), CD40 (Pharmingen), CD80 (Pharmingen), and CD83 (Immunotech). Thereafter, mean fluorescence intensity and the ratio of positive cells were measured by flow cytometry. The expression level was calculated by the formula “the mean fluorescence intensity x the ratio of positive cells,” and the inhibition rate of the surface antigen expression level of dendritic cells was then obtained by the following formula (8).
# [formula] • Eexp: Expression level of surface antigens of dendritic cells cultured in the presence of test compound • Cexp: Expression level of surface antigens of dendritic cells cultured in the absence of test compound
# [1] = system: (C57BL/6XB6. C—H2^bml) F1 mice; test: Life-lengthening effect on graft versus host disease (GVHD); type: in vivo, mouse; conditions: oral, once a day
# Description: Life-Lengthening Effect on Graft Versus Host Disease (GVHD)
# The present test was carried out by modification of the method of Jonathan et al. (Jonathan et al., Blood, p. 93 (1999)). First, 6.0 Gy X-ray was applied to (C57BL/6XB6. C—H2^bml) F1 mice (produced by mating 6XB6.C—H2^bml mice (Jackson Laboratory) with C57BL/6 mice (Charles River Japan); female; 8 to 12-week-old). Thereafter, CD8 positive T cells (1.25×10^6 cells) prepared from the splenic cells of C57BL/6 mice (Charles River Japan; female; 8-week-old) were intravenously injected into the above (C57BL/6XB6. C—H2^bml) F1 mice. From the day before the injection, the test compound having each diluted concentration or 0.5% carboxymethyl cellulose used as a solvent was orally administered to the mice once a day for 7 to 30 consecutive days. The day on which the transplantation was conducted was defined as day 0. Based on the median of the survival days of each group, the prolongation rate of such survival dates was calculated using the following formula (7). Thus, the effect of the test compound on GVHD was analyzed.
# [formula] • Eexp: Median of survival days of test compound administration group • Cexp: Median of survival days of solvent administration group
smiles,measurement,setting,value
"CC(C)NC(=O)Nc1nc2nccc(-c3cccs3)n2n1 [Example 029, 1-isopropyl-3-(7-thiophen-2-yl[1,2,4]triazolo[1,5-a]pyrimidin-2-yl)urea]","Expression inhibition rate by test compound (%), CD1a",CD1a,55.6%
same,Reduction rate (%) of number of PFCs,BALB/c mice,49.3%
same,"Expression inhibition rate by test compound (%), CD80","CD80; Analyte 1, 3 days",83.8%
same,"Expression inhibition rate by test compound (%), CD80","CD80; Analyte 2, 3 days",12.1%
same,"Expression inhibition rate by test compound (%), CD80","CD80; Analyte 3, 3 days",26.8%
same,Lengthening rate of survival days (%),[1]; 25 mg/kg/single administration,75%
same,Lengthening rate of survival days (%),[1]; 100 mg/kg/single administration,200%
